The source of these data is publication PMC7904636 (International journal of pharmaceutics, 2021).

Data set [1] in a line: Solubility in aqueous medium. The format is physicochemical. The following applies: precipitation observed when DMSO solution was diluted with HBSS.
The next data set has as its system A549 cells. To be noted: toxic at this concentration or higher, ref Zhu et al., 2020; cited from earlier work.

On to `CC(C)(C)c1cc(C(C)(C)C)c(NC(=O)c2c[nH]c3ccccc3c2=O)cc1O` [ivacaftor, Ivacaftor], for which the “Solubility in aqueous medium” value in data set [1] is on record as “very low solubility”. Further, the “Concentration toxic to A549 cells” value in the data set with A549 cells was not below 8000 ng/mL.
